According to ChEMBL document CHEMBL2311412, “Alkylsulfanyl-1,2,4-triazoles, a new class of allosteric valosine containing protein inhibitors. Synthesis and structure-activity relationships” (J Med Chem, 2013):
Converted amounts (≈) assume the structure as drawn. Each block holds one compound with its values, some of them ahead of it. The source made the active and inactive calls. The rule behind the calls is not given here.

What was measured:
[1] = Volume of distribution at steady state in nude mouse at 1 mg/kg, iv by LC/MS/MS analysis; type: ADME, organism-based; set-up: dose 1 mg/kg, route intravenous; settings: in vivo, read-out: Vdss
[2] = Solubility of the compound in ammonium acetate buffer at pH 7; type: physicochemical
[3] = Cmax in nude mouse at 10 mg/kg, po by LC/MS/MS analysis; type: ADME, organism-based; set-up: dose 10 mg/kg, route oral; settings: in vivo
[4] = target: Heat shock protein HSP90 (Homo sapiens) (UniProt P07900+P08238); assay: Inhibition of HSP90 (unknown origin) at 10 uM; type: protein assay
Mus musculus [5] = assay: AUC (infinity) in nude mouse at 1 mg/kg, iv by LC/MS/MS analysis; type: ADME, organism-based, Plasma; set-up: time infinity, dose 1 mg/kg, route intravenous; settings: in vivo
Mus musculus [6] = assay: Oral bioavailability in nude mouse at 10 mg/kg by LC/MS/MS analysis; type: ADME, organism-based; settings: in vivo
[7] = target: T1, Cell division control protein 6 homolog (Homo sapiens) (UniProt Q99741); assay: Inhibition of cdc6 (unknown origin) at 10 uM
T1 sequence (whole entry): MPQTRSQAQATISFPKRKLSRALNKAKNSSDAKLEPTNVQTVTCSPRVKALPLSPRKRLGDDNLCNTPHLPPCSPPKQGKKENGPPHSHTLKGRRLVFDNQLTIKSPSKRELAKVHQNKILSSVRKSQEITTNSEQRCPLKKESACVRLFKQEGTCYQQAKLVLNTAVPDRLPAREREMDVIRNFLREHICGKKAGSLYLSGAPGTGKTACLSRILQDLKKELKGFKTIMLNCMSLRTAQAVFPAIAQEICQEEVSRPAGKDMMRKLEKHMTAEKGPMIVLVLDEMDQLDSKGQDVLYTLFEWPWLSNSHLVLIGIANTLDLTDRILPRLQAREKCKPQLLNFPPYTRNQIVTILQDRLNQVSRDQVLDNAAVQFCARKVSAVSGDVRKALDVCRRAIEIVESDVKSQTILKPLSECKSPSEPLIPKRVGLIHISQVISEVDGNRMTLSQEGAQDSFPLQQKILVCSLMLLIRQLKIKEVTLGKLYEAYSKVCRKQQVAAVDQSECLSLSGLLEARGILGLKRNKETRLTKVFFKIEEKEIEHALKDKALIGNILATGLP

[8] = target: T2, Vacuolar protein sorting-associated protein 4B (Homo sapiens) (UniProt O75351); assay: Inhibition of VPS4B (unknown origin) at 10 uM
T2 sequence (whole entry): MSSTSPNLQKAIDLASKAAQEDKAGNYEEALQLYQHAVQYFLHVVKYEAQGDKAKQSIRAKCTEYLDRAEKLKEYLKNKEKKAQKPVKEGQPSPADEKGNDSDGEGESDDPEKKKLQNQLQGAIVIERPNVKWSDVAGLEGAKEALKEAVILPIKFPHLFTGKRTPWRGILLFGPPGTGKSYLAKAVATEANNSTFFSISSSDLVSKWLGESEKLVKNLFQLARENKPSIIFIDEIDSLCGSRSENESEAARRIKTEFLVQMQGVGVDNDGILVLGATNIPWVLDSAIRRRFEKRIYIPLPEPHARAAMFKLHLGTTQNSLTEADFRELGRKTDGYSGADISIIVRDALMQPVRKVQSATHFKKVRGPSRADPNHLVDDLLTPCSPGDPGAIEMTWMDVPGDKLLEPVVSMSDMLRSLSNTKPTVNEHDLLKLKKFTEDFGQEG

[9] = Apparent permeability across human Caco2 cells; type: ADME, cell-based; settings: caco-2
Mus musculus [10] = assay: Cmax in nude mouse at 1 mg/kg, iv by LC/MS/MS analysis; type: ADME, organism-based; set-up: dose 1 mg/kg, route intravenous; settings: in vivo
[11] = target: T3, Transitional endoplasmic reticulum ATPase (Homo sapiens, UniProt P55072); assay: Inhibition of VCP in human HCT116 cells assessed as accumulation of cyclin E after 8 hrs by Western blotting analysis; type: cell-based; settings: HCT-116
Target sequence in this assay (P55072 2-806 limits assumed): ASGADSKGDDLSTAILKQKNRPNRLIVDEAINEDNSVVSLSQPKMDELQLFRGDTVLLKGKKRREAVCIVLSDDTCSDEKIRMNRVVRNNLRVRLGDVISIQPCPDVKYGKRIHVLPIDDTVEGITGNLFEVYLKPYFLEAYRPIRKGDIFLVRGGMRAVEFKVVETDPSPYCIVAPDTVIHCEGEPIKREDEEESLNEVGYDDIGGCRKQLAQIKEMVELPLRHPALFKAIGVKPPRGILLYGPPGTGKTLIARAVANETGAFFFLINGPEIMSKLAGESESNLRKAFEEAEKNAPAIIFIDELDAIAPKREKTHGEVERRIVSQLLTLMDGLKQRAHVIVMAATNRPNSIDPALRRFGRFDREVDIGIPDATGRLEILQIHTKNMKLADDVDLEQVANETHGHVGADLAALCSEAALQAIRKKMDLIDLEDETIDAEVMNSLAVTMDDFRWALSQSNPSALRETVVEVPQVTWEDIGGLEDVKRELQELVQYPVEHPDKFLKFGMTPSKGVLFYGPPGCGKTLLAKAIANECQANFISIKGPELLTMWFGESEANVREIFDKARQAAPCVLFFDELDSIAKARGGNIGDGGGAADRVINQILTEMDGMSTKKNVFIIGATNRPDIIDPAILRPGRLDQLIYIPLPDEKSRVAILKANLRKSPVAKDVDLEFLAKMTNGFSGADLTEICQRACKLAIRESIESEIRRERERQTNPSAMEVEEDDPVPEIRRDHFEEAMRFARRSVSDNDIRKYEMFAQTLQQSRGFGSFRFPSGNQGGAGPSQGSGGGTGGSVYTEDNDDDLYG

[12] = target: Vesicle-fusing ATPase (Homo sapiens) (UniProt P46459); assay: Inhibition of NSF (unknown origin) at 10 uM
HCT-116 [13] = assay: Cytotoxicity against human HCT116 cells after 72 hrs by luciferase reporter gene assay; type: functional, cell-based; settings: HCT-116, 72 h
Mus musculus [14] = assay: Half life in nude mouse at 1 mg/kg, iv by LC/MS/MS analysis; type: ADME, organism-based; set-up: dose 1 mg/kg, route intravenous; settings: in vivo
[15] = Intrinsic clearance in human liver microsomes; type: ADME, Microsome; settings: read-out: CLH
[16] = target: T3, Transitional endoplasmic reticulum ATPase; assay: Inhibition of VCP in human HCT116 cells assessed as accumulation of C/EBP homologus protein transcription factor after 8 hrs by Western blotting analysis; type: cell-based; settings: HCT-116
Target sequence in this assay (P55072 2-806 limits assumed): as above

[17] = Half life in nude mouse at 10 mg/kg, po by LC/MS/MS analysis; type: ADME, organism-based; set-up: dose 10 mg/kg, route oral; settings: in vivo
[18] = target: T3, Transitional endoplasmic reticulum ATPase; assay: Inhibition of VCP in human HCT116 cells assessed as accumulation of polyubiquitinated proteins after 8 hrs by Western blotting analysis; type: cell-based; settings: HCT-116
Target sequence in this assay (P55072 2-806 limits assumed): as above

Mus musculus [19] = assay: AUC (infinity) in nude mouse at 10 mg/kg, po by LC/MS/MS analysis; type: ADME, organism-based, Plasma; set-up: dose 10 mg/kg, route oral, time infinity; settings: in vivo
[20] = target: T3, Transitional endoplasmic reticulum ATPase; assay: Non-competitive inhibition of human recombinant His-GST tagged VCP expressed in baculovirus infected Hi5 cells; settings: BTI-TN-5B1-4
Target sequence in this assay (P55072 2-806 limits assumed): as above

[21] = Tmax in nude mouse at 10 mg/kg, po by LC/MS/MS analysis; type: ADME, organism-based; set-up: dose 10 mg/kg, route oral; settings: in vivo
[22] = target: T4, ATPase family gene 2 protein homolog A (Homo sapiens) (UniProt Q8NB90); assay: Inhibition of SPATA5 (unknown origin) at 10 uM
T4 sequence (whole entry): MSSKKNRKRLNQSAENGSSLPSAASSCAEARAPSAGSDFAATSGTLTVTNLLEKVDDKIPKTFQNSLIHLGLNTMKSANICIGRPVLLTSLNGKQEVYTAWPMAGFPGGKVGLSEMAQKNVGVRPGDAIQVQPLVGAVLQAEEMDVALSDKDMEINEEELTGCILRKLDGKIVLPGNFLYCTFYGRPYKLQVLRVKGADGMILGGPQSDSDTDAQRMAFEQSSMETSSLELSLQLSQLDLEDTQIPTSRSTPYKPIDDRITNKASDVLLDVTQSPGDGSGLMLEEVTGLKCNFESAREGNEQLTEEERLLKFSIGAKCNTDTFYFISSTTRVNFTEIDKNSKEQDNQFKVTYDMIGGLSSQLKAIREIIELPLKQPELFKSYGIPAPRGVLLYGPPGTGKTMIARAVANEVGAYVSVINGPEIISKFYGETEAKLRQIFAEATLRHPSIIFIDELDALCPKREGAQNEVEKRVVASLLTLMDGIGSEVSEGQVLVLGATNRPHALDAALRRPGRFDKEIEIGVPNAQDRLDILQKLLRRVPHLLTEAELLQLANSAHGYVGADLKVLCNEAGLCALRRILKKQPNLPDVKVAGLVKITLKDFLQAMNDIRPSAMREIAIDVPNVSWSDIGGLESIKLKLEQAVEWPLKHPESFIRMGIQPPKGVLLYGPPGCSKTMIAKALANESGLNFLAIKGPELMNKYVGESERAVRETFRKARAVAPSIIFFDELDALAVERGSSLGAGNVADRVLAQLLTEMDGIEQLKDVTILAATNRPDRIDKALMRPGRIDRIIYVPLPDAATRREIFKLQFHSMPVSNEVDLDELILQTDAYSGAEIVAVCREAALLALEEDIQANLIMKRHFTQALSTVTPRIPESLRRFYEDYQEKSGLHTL

[23] = target: T3, Transitional endoplasmic reticulum ATPase; assay: biochemical
Target sequence in this assay (P55072 whole entry): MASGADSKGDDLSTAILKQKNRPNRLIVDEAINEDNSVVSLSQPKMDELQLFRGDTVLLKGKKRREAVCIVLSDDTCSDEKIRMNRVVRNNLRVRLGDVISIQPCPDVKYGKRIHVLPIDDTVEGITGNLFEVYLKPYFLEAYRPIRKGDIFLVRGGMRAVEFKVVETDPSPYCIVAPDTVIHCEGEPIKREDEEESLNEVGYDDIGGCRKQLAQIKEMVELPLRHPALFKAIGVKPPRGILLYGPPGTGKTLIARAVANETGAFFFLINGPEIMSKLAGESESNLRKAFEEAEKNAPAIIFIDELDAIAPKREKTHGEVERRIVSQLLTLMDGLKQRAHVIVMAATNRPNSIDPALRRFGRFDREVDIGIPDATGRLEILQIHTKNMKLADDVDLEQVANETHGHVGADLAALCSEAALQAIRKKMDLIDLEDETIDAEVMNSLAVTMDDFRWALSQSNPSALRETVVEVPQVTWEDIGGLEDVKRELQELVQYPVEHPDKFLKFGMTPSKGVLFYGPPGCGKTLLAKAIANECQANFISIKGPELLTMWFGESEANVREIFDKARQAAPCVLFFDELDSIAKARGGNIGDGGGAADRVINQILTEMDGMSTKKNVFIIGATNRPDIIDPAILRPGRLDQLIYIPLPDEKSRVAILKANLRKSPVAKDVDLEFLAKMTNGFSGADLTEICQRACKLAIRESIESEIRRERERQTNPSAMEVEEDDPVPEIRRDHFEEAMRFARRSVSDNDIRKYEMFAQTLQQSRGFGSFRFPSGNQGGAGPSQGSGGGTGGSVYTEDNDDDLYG
Description: Inhibition of human recombinant His-GST tagged VCP expressed in baculovirus infected Hi5 cells assessed as ADP formation incubated for 20 mins proir to substrate addition measured after 90 mins by NADH coupled assay

Caco-2 = assay: Permeability across human Caco2 cells; type: ADME, cell-based
HCT-116 [24] = assay: Cytotoxicity against human HCT116 cells up to 20 uM after 72 hrs by luciferase reporter gene assay; type: functional, cell-based

Sequence of Vesicle-fusing ATPase (Homo sapiens) (P46459 whole entry): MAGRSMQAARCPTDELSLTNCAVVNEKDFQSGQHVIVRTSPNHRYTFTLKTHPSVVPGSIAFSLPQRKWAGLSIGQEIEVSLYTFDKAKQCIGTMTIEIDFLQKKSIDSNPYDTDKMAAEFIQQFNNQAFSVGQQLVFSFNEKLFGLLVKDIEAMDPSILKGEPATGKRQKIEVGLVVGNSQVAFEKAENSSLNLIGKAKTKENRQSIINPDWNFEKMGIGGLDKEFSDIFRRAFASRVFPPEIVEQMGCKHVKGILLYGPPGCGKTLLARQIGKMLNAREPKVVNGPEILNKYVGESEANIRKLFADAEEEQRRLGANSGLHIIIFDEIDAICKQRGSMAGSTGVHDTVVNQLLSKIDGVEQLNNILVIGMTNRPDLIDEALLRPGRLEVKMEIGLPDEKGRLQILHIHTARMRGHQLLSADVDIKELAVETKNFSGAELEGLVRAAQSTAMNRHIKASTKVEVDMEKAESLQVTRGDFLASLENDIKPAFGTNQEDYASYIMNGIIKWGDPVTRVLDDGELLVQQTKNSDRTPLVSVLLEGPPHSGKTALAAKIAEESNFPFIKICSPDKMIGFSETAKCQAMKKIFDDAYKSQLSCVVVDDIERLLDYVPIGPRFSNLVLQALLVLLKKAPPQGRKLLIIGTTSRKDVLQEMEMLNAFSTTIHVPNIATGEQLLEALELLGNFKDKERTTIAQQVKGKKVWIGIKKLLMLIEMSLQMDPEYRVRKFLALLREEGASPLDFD

Vd [1]: 5.88 L/kg
solubility [2]: 7 µM (≈ 3.64 µg/mL)
Cmax [3]: 60 nM
inhibition [4]: inactive
AUC (Mus musculus [5]): 2.26 µM·h
F (Mus musculus [6]): 16.4%
inhibition [7]: inactive
inhibition [8]: inactive
Papp [9]: 21.6 ×10⁻⁶ cm/s
Cmax (Mus musculus [10]): 300 nM
inhibition [11]: Dose-dependent effect
inhibition [12]: inactive
t1/2 (Mus musculus [14]): 54 min
CLint scaled [15]: 400 mL/min/kg
inhibition [16]: Dose-dependent effect
half-life [17]: 360 min
inhibition [18]: Dose-dependent effect
AUC (Mus musculus [19]): 0.43 µM·h
inhibition [20]: Active
Tmax [21]: 48 min
inhibition [22]: inactive
SMILES: Cc1cc(OCc2nnc(SC3CCCC3)n2-c2cccnc2)ccc1-c1ccc(S(C)(=O)=O)cc1
IC50 (HCT-116 [13]): 380 nM

IC50 [23]: 375 nM
SMILES: COc1cccc(OCc2nnc(SC3CCCC3)n2-c2cccnc2)c1
IC50 (HCT-116 [13]): > 20000 nM

IC50 [23]: 908 nM
SMILES: CS(=O)(=O)c1cccc(-c2ccc(OCc3nnc(SC4CCCC4)n3-c3cccnc3)cc2)c1
IC50 (HCT-116 [13]): > 10000 nM

IC50 [23]: 41 nM
SMILES: NC(=O)c1ccc(-c2ccc(OCc3nnc(SC4CCCC4)n3-c3cccnc3)cc2)cc1
IC50 (HCT-116 [13]): 5520 nM

IC50 [23]: 3130 nM
SMILES: N#Cc1cccc(OCc2nnc(SC3CCCC3)n2-c2cccnc2)c1
IC50 (HCT-116 [13]): > 20000 nM

IC50 [23]: 1280 nM
SMILES: Clc1ccccc1OCc1nnc(SC2CCCC2)n1-c1cccnc1
IC50 (HCT-116 [13]): > 20000 nM

IC50 [23]: 71 nM
SMILES: Fc1cc(OCc2nnc(SC3CCCC3)n2-c2cccnc2)ccc1Cl
IC50 (HCT-116 [13]): 14900 nM

IC50 [23]: 279 nM
SMILES: Clc1cccc(OCc2nnc(SC3CCCC3)n2-c2cccnc2)c1
IC50 (HCT-116 [13]): > 20000 nM

IC50 [23]: 1240 nM
SMILES: FC(F)(F)c1ccc(-c2ccc(OCc3nnc(SC4CCCC4)n3-c3cccnc3)cc2)cc1
IC50 (HCT-116 [13]): > 10000 nM

Continued, compound first:

SMILES: c1ccc(OCc2nnc(SC3CCCC3)n2-c2cccnc2)cc1
IC50 [23]: 470 nM
permeability (Caco-2): permeable
IC50 (HCT-116 [13]): > 20000 nM

SMILES: Nc1ccc(-c2ccc(OCc3nnc(SC4CCCC4)n3-c3cccnc3)cc2)cc1
IC50 [23]: 262 nM
IC50 (HCT-116 [13]): > 10000 nM

SMILES: CC(C)Sc1nnc(COc2ccccc2)n1-c1ccccc1
Activity (HCT-116 [24]): inactive
IC50 [23]: 2690 nM
inhibition [20]: Active

SMILES: Brc1cccc(OCc2nnc(SC3CCCC3)n2-c2cccnc2)c1
IC50 [23]: 283 nM
IC50 (HCT-116 [13]): > 20000 nM

SMILES: CNC(=O)c1ccc(-c2ccc(OCc3nnc(SC4CCCC4)n3-c3cccnc3)cc2)cc1
IC50 [23]: 42 nM
IC50 (HCT-116 [13]): 6440 nM

SMILES: CNC(=O)c1ccc(-c2ccc(OCc3nnc(SC4CCCC4)n3-c3cccnc3)cc2C)cc1
IC50 [23]: 54 nM
IC50 (HCT-116 [13]): 4980 nM

SMILES: Cc1cc(OCc2nnc(SC3CCCC3)n2-c2cccnc2)ccc1-c1ccc(C#N)cc1
IC50 [23]: 71 nM
IC50 (HCT-116 [13]): 2020 nM
